Assay results published in article PMC12583704 (Signal Transduction and Targeted Therapy, 2025).
Where two headings read alike, the source gives them in different places.

What was measured:
[1] = Clinical pharmacokinetics in patients with GIST (noncompartmental); assay type: in vivo, human; conditions: for AUC(0-t) / Cmax / Vd/F / Tmax / half-life: human, plasma; for Vd/F: read-out: Vz/F; for Tmax: median (range)
Protocol: Noncompartmental pharmacokinetic analysis was conducted via Phoenix WinNonlin software (version 6.4).

TNBC MDA-MB-231 cells = system: TNBC MDA-MB-231 cells; parameters: method as in HQP1351 SJ0003 Protocol; conditions: ref HQP1351 SJ0003 Protocol; cited from earlier work
[2] = 20 mg QOD oral, fed, steady state (Cycle 1 Day 27), mean (SD)
[3] = 30 mg QOD oral, fed, steady state (Cycle 1 Day 27), mean (SD)
[4] = 40 mg QOD oral, fed, steady state (Cycle 1 Day 27), mean (SD)
[5] = 50 mg QOD oral, fed, steady state (Cycle 1 Day 27), mean (SD)

Cc1ccc(C(=O)Nc2ccc(CN3CCN(C)CC3)c(C(F)(F)F)c2)cc1C#Cc1cnc2[nH]ncc2c1 [Olverembatinib, 3-[(1H-pyrazolo[3,4-b]pyridin-5-yl)ethynyl]-4-methyl-N-{4-[(4-methylpiperazin-1-yl)methyl]-3-(trifluoromethyl)phenyl]benzamide]
Cl/F [1, 2]: 67.2 ± 2.3 L/h
Cl/F [1, 3]: 87.7 ± 56.8 L/h
Cl/F [1, 4]: 79.9 ± 35.3 L/h
Cl/F [1, 5]: 87.5 ± 39.7 L/h
accumulation after multiple-dose administration ([1]; QOD): no significant accumulation
increase in Cmax and AUClast with dose ([1]; dose range of 20 to 50 mg): approximately dose-proportional increase
AUC(0-t) [1, 2]: 228 ± 6.4 ng·h/mL
Cmax [1, 2]: 9.18 ± 0.13 ng/mL
Vd/F [1, 2]: 2143 ± 17.1 L
Tmax ([1]; 20 mg QOD oral, fed, steady state (Cycle 1 Day 27)): 7 h
AUC(0-t) [1, 3]: 307 ± 121 ng·h/mL
Cmax [1, 3]: 12.5 ± 2.9 ng/mL
half-life ([1]; 30 mg QOD oral, fed, steady state (Cycle 1 Day 27), mean (SD), read-out: T1/2 (converted)): 27 ± 15.4 h
Vd/F [1, 3]: 2650 ± 877 L
Tmax ([1]; 30 mg QOD oral, fed, steady state (Cycle 1 Day 27)): 7 h
AUC(0-t) [1, 4]: 473 ± 177 ng·h/mL
Cmax [1, 4]: 21.8 ± 9.7 ng/mL
half-life ([1]; 40 mg QOD oral, fed, steady state (Cycle 1 Day 27), mean (SD), read-out: T1/2 (converted)): 18.9 ± 6.4 h
Vd/F [1, 4]: 2130 ± 990 L
AUC(0-t) [1, 5]: 518 ± 174 ng·h/mL
Cmax [1, 5]: 26.5 ± 16 ng/mL
half-life ([1]; 50 mg QOD oral, fed, steady state (Cycle 1 Day 27), mean (SD), read-out: T1/2 (converted)): 19.5 ± 6.8 h
Vd/F [1, 5]: 2350 ± 942 L
Tmax ([1]; 50 mg QOD oral, fed, steady state (Cycle 1 Day 27)): 8 h
half-life ([1]; oral doses ranging from 20 to 50 mg, read-out: mean t1/2): 18.9 to 27 h
IC50 (TNBC MDA-MB-231 cells): 9 ± 5 nM
